Counter-ions that a name gives are not always drawn. Activity calls are given as the source filed them.
Legend:
Phospholipase D2 = Phospholipase D2 (Homo sapiens, UniProt O14939); test: cellular phospholipase D2 inhibition IC50 – cell-based, dose response (AID 602147); type: functional;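 note: cellular assay in HEK293 cells overexpressing GFP-tagged PLD2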
Phospholipase D1 = Phospholipase D1 (Homo sapiens, UniProt Q13393); test: cellular phospholipase D1 inhibition IC50 – cell-based, dose response (AID 602151); type: functional;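 note: cellular PLD1 assay in Calu-1 cells stimulated with PMA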
[1] = viability loss in CEM21 cells – cell-based, CellTiter-Glo luminescence, cherry-picked, cytotoxicity control for viral fusion inhibitor project, dose response (AID 652042); type: functional;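 note: potency for signal decrease meaning cytotoxicity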
[2] = biological target: Delta-type opioid receptor (Homo sapiens, UniProt P41143); test: Counterscreen for agonists of heterodimerization of the mu 1 (OPRM1) and delta 1 (OPRD1) opioid receptors: Luminescence-based cell-based high throughput dose response assay to identify agonists of OPRD1 homodimerization. [Related pubchem assays (depositor defined):AID504326, AID504355, AID504692, AID504904, AID504905]; type: functional
[3] = biological target: T1, Endoribonuclease toxin MazF (Escherichia coli K-12, UniProt P0AE70); test: substrate-only fluorescence increase artefacts – biochemical, single-stranded RNase substrate, counter-screen for MazEF activator project, dose response (AID 588502); type: functional
[4] = biological target: 5-hydroxytryptamine receptor 5A (Homo sapiens, UniProt P47898); test: Counterscreen for agonists of OPRM1-OPRD1 heterodimerization: luminescence-based cell-based high throughput dose response assay to identify agonists of 5-hydroxytryptamine (serotonin) 5A receptor (HTR5A). [Related pubchem assays (depositor defined):AID504326, AID504355, AID504692, AID504904, AID504905]; type: functional
[5] = blockers of HIV-1 ZM109 envelope-driven cell-cell fusion – HeLa effector, CEM target cells, luciferase, cherry-pick, dose response (AID 652058); type: functional, cell-based;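 note: luciferase signal from HIV-1 Env mediated cell-cell fusion of effector and target cells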
[6] = blockers of HIV-1 envelope-mediated cell-cell fusion – cherry-pick, dose response (AID 652057); type: functional, cell-based
[7] = biological target: T1, Endoribonuclease toxin MazF; test: activation of MazEF endoribonuclease cleavage – biochemical, fluorescence, single-stranded RNA substrate, uHTS hits, dose response (AID 588481); type: functional
Mu-type opioid receptor = Mu-type opioid receptor (Homo sapiens, UniProt P35372); test: Counterscreen for agonists of heterodimerization of the mu 1 (OPRM1) and delta 1 (OPRD1) opioid receptors: Luminescence-based cell-based high throughput dose response assay to identify agonists of OPRM1 homodimerization.; type: functional;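 note: U2OS cells expressing OPRM1 and beta-arrestin as split beta-galactosidase partners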
[8] = biological target: Dual specificity protein kinase CLK1 (Homo sapiens, UniProt P49759); test: inhibition of human CLK1 activity – biochemical, cherry-picked samples, selectivity assay for Dyrk1A inhibitor project, dose response (AID 588811)
[9] = biological target: Dual specificity tyrosine-phosphorylation-regulated kinase 1A (Rattus norvegicus, UniProt Q63470); type: biochemical, Homo sapiens
Candida albicans [10] = test: resistant Candida growth with fluconazole co-treatment – CaCi-8 strain, Alamar Blue, dry powder, set 3, dose response (AID 488905); type: functional, organism-based
Candida albicans [11] = test: Candida growth inhibition combined with fluconazole – CaCi-2 strain, Alamar Blue, dry powder, set 3, dose response (AID 488907); type: functional, organism-based
[12] = biological target: T2, Sentrin-specific protease 8 (Homo sapiens, UniProt Q96LD8); type: functional;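 note: luminescence read-out of SENP8 inhibition, dose-response confirmation following an ultra-high-throughput screen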
T2 sequence (Q96LD8 whole entry): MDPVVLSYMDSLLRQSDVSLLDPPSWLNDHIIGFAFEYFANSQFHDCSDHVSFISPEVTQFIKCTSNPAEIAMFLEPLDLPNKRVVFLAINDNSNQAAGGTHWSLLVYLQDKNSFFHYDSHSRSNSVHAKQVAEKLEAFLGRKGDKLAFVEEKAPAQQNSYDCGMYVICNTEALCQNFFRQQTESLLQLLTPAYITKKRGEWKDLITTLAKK

Caspase-3 [13] = biological target: T3, Caspase-3 (Homo sapiens, UniProt P42574); type: functional
T3 sequence (P42574 whole entry): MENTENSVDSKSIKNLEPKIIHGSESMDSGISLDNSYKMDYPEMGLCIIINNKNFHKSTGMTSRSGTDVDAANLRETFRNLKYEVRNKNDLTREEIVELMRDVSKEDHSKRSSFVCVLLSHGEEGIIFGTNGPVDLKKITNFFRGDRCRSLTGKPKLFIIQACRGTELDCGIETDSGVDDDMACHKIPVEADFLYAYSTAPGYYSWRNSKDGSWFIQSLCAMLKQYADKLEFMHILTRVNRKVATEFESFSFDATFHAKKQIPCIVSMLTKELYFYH

[14] = biological target: T4, Sentrin-specific protease 6 (Homo sapiens, UniProt Q9GZR1); type: functional
T4 sequence (Q9GZR1 whole entry): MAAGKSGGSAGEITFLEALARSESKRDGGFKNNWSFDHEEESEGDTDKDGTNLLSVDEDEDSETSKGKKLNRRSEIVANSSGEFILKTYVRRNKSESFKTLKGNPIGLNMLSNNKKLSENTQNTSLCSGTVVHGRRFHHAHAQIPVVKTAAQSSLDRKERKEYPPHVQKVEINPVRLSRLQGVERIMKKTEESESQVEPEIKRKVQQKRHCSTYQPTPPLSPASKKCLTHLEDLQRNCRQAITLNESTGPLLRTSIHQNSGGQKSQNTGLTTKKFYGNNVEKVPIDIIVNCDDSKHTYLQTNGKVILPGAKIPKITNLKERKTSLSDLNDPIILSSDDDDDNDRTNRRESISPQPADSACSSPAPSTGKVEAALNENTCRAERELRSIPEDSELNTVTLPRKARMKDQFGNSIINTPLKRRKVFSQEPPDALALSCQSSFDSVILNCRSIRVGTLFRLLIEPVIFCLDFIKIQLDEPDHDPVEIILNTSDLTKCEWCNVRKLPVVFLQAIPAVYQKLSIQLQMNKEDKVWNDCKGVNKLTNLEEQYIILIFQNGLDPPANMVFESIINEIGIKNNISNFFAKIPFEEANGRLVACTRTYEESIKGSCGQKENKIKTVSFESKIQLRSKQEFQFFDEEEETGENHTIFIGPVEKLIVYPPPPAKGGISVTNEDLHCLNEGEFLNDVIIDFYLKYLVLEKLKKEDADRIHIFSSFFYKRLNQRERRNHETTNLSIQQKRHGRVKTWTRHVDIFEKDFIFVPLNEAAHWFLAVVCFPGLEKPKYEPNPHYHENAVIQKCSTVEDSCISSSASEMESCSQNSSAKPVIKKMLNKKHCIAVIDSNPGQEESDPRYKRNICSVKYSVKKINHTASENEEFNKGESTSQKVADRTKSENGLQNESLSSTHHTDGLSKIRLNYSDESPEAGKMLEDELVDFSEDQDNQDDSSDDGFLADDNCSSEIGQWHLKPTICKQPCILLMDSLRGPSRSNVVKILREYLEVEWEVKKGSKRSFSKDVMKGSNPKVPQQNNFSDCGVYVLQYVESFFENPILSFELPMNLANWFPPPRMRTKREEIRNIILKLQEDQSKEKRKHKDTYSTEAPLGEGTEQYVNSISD

[15] = biological target: T5, Sentrin-specific protease 7 (Homo sapiens, UniProt Q9BQF6); type: functional;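 note: Luminescence-based dose-response confirmation of ultra-high-throughput screening hits, measuring inhibition of SENP7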
T5 sequence (Q9BQF6 whole entry): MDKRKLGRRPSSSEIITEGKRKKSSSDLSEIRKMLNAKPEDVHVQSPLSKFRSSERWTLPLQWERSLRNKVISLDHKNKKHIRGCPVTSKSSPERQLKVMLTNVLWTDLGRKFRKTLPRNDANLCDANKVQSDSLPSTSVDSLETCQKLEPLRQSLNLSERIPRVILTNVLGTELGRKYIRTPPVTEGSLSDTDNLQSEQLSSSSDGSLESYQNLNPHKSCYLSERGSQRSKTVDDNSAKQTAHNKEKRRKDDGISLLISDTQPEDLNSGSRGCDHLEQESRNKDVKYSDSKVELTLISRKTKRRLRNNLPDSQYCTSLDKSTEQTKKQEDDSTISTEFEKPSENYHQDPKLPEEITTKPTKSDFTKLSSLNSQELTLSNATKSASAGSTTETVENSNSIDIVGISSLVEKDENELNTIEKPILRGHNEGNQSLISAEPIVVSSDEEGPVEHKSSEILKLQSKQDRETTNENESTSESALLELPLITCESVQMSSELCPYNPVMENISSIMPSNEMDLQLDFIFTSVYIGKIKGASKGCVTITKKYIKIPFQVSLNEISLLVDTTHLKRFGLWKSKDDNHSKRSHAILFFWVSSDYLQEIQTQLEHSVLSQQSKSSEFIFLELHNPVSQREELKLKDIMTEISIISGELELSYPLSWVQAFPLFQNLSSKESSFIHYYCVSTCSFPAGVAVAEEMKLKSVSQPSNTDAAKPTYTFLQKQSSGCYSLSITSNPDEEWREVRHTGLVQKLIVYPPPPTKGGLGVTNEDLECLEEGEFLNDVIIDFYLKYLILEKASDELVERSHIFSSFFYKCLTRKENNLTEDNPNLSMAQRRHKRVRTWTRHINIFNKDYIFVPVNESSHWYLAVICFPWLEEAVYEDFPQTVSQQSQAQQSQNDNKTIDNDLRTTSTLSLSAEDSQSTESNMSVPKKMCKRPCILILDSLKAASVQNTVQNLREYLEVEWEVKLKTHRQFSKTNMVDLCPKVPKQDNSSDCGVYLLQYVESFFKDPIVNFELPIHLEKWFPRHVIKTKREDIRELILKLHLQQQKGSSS

HeLa = test: ATP-based viability loss in HeLa cells – cell-based, CellTiter-Glo luminescence, cherry-pick samples, cytotoxicity control for MITF activator project, dose response (AID 540259); type: functional; settings: Homo sapiens
[16] = biological target: Type-1 angiotensin II receptor (Homo sapiens, UniProt P30556); test: antagonism of angiotensin II type 1 receptor – cell-based, uHTS hits, selectivity assay for APJ receptor antagonist project, dose response (AID 463214); type: functional;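 note: antagonist potency against angiotensin II stimulated AT1 response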
Beta-galactosidase = Beta-galactosidase (Escherichia coli, UniProt Q8VNN2); test: PubChem AID 485352; type: functional
HEK293 [17] = test: optical interference in Abeta FP readout, dose response, artefact control for IDE activator project, biochemical, fluorescence polarization (AID 588442); type: functional, cell-based; settings: Homo sapiens
Insulin-degrading enzyme [18] = biological target: T6, Insulin-degrading enzyme (Homo sapiens, UniProt P14735); test: recombinant IDE activation, cell-free – biochemical, fluorescence polarization, counter-screen for IDE activator project, dose response (AID 588681)
Insulin-degrading enzyme [19] = biological target: T6, Insulin-degrading enzyme; test: cellular IDE activation of Abeta substrate cleavage – fluorescence polarization, HEK cells, dose response (AID 588439); type: functional, cell-based
HEK293 [20] = test: membrane integrity loss in HEK cells – cell-based, fluorescence, cytotoxicity control for IDE activator project, dose response (AID 588440); type: functional; settings: Homo sapiens;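 note: cytotoxicity by LDH release measuring loss of membrane integrity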
Cytochrome P450 2C19 = Cytochrome P450 2C19 (Homo sapiens, UniProt P33261); test: Cytochrome panel assay with activity outcomes. Panel member name: p450-cyp2c19 Compounds with AC50 equal or less than 10 uM are considered active; type: functional
Caspase-3 [21] = biological target: T3, Caspase-3; test: SAR Analysis of small molecule inhibitors of Sentrin-specific proteases (SENPs) using a Caspase-3 Selectivity assay. [Related pubchem assays (depositor defined):AID2540, AID2599, AID434973, AID489001]; type: functional
[22] = biological target: T5, Sentrin-specific protease 7; test: inhibition of human SENP7 cleavage activity – biochemical, luminescence, SAR follow-up (AID 504497); type: functional
[23] = biological target: T4, Sentrin-specific protease 6; test: SAR Analysis of small molecule inhibitors of Sentrin-specific protease 6 (SENP6) using a Luminescent assay. [Related pubchem assays (depositor defined):AID2582, AID2599]; type: functional
[24] = biological target: T2, Sentrin-specific protease 8; test: inhibition of human SENP8 cleavage activity – biochemical, luminescence, SAR follow-up (AID 504501); type: functional
[25] = biological target: Voltage-gated inwardly rectifying potassium channel KCNH2 (Homo sapiens, UniProt Q12809); settings: Potency;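 note: confirmatory quantitative high-throughput screen measuring inhibition of hERG channel activity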

T6 sequence (P14735 whole entry): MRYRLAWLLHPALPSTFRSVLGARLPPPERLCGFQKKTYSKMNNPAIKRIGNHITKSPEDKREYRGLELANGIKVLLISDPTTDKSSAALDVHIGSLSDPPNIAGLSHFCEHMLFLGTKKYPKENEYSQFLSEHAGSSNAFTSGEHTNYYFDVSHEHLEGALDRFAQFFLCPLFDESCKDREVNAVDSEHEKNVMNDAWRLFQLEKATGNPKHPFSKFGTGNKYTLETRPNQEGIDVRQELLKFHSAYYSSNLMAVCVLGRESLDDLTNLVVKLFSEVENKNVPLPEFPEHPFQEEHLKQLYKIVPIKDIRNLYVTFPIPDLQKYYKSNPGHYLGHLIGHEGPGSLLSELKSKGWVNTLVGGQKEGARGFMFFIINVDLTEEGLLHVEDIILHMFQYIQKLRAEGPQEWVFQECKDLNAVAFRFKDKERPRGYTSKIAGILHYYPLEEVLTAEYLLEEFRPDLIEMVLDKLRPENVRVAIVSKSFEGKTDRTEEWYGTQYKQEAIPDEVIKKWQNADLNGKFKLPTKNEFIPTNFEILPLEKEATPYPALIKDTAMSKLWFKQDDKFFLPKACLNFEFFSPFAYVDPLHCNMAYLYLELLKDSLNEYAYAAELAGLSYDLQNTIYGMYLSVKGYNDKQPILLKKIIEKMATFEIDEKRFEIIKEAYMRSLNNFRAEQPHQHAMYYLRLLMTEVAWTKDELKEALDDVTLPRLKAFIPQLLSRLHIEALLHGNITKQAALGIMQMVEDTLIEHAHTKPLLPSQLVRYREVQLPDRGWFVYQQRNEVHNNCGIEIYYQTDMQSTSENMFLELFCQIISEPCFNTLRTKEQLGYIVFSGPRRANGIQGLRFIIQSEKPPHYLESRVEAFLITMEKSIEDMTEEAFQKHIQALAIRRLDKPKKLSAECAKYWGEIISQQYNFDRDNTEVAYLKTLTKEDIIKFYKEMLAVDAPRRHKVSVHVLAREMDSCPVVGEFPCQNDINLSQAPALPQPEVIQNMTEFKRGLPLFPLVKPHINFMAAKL
T1 sequence (P0AE70 whole entry): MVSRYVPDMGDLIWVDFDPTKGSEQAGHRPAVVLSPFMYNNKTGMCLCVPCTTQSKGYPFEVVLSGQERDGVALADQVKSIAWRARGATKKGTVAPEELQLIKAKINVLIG
Sequence of Type-1 angiotensin II receptor (P30556 whole entry): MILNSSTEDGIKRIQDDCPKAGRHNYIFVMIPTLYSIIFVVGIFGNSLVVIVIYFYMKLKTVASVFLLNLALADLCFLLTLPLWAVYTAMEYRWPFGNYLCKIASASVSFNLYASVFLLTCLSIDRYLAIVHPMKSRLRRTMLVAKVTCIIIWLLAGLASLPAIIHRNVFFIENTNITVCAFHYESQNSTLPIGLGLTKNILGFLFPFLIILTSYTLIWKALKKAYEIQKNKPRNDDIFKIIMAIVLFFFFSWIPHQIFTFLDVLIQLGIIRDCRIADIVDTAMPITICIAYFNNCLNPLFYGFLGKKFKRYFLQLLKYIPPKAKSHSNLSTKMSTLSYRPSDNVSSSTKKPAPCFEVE
Sequence of Phospholipase D1 (Q13393 whole entry, the tested form may be a part): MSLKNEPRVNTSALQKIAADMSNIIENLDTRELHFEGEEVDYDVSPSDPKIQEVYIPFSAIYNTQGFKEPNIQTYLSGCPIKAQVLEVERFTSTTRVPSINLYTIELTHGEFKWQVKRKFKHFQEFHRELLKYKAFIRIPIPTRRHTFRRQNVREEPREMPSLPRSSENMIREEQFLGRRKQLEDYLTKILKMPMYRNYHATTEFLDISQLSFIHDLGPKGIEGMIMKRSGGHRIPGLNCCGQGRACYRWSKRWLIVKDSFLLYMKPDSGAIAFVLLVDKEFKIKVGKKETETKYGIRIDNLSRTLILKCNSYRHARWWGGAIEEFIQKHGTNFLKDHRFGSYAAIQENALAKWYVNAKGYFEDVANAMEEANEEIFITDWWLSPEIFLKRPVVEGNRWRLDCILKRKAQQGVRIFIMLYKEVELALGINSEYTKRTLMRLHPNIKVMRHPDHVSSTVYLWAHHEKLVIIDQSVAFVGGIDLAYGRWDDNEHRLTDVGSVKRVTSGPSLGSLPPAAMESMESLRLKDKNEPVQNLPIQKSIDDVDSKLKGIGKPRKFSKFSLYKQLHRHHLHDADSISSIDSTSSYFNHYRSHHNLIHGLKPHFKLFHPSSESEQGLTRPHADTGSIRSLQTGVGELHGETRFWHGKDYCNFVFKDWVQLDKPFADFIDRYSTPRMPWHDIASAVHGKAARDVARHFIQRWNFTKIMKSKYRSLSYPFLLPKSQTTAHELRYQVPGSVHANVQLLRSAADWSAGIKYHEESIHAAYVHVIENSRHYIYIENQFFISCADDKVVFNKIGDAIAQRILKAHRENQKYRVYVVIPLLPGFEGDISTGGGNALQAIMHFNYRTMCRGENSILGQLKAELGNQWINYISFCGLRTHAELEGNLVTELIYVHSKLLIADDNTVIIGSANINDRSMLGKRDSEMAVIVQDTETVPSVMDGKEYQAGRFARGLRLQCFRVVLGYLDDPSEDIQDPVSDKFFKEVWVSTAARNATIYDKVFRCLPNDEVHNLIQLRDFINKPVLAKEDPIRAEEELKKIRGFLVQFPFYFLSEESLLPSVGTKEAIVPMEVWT
Sequence of Delta-type opioid receptor (P41143 whole entry): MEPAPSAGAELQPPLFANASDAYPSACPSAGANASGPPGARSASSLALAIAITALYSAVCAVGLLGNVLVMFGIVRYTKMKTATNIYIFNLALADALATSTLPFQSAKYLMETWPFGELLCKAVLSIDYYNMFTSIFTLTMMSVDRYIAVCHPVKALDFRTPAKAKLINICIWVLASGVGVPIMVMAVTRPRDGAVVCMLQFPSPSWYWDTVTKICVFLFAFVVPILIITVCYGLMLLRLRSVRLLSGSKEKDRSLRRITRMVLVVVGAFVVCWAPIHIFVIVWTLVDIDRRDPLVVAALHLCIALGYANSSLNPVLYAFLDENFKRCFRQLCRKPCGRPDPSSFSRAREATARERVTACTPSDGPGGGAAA
Sequence of 5-hydroxytryptamine receptor 5A (P47898 whole entry, the tested form may be a part): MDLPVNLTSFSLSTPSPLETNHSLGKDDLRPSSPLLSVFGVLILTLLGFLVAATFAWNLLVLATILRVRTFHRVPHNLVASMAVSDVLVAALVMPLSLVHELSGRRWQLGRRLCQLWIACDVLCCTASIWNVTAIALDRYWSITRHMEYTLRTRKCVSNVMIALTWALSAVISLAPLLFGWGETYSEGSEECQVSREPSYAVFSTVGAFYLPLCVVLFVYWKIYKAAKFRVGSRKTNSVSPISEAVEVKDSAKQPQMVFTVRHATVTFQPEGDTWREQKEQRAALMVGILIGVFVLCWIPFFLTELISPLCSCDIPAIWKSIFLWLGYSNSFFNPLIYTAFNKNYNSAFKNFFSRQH
Sequence of Cytochrome P450 2C19 (P33261 whole entry): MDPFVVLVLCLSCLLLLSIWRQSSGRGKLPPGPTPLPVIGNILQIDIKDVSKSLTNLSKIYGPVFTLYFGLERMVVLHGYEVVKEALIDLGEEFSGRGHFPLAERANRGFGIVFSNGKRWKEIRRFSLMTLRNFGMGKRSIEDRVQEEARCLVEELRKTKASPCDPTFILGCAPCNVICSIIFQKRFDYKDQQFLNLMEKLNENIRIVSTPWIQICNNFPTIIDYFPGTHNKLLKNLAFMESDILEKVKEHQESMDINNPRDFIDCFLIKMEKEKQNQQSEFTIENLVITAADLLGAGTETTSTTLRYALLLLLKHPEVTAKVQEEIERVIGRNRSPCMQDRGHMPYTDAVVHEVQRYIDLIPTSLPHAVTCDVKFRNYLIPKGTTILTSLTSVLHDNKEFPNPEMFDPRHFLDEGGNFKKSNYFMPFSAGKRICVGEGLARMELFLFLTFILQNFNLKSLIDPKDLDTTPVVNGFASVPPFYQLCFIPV
Sequence of Mu-type opioid receptor (P35372 whole entry): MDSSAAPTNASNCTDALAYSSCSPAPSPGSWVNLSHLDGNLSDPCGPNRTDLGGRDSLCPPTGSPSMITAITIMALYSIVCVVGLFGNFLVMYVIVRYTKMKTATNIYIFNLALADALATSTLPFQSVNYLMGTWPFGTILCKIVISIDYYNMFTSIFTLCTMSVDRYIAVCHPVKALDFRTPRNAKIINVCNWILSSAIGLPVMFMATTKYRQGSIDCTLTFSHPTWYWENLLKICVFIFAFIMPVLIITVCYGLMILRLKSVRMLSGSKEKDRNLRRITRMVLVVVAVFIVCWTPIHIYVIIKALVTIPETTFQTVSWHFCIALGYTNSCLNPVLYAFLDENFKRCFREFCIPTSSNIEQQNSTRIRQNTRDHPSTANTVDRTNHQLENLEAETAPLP
Sequence of Dual specificity protein kinase CLK1 (P49759 whole entry): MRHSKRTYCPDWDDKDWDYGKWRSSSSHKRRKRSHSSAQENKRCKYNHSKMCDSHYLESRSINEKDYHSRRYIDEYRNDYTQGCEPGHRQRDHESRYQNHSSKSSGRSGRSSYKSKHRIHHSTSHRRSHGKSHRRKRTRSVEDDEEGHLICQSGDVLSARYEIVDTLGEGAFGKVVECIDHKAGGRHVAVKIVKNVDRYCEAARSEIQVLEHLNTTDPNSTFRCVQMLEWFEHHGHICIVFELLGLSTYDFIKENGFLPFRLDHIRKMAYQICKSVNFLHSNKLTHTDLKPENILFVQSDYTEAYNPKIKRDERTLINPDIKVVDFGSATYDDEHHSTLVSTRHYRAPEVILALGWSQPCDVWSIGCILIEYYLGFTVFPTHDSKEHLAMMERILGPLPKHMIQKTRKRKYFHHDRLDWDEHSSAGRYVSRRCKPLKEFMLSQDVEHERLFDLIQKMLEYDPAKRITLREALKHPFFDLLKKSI

C[C@@H](CN1CCC2(CC1)C(=O)NCN2c1ccc(F)c(F)c1)NC(=O)c1cc2ccccc2[nH]1
IC50 (Phospholipase D2): 0.034 µM (active) | IC50 (Phospholipase D1): 0.003 µM (active)

Nc1nonc1C(=O)NCCNCc1c(OCc2ccccc2F)ccc2ccccc12
AC50 [1]: 52.6 µM (active) | EC50 [2]: 74.8 µM (inactive) | EC50 [3]: > 99 µM (inactive) | EC50 [4]: > 92.5 µM (inactive) | AC50 [5]: 14.1 µM (active) | AC50 [6]: 0.922 µM (active) | EC50 [7]: > 99 µM (inactive) | EC50 (Mu-type opioid receptor): > 92.5 µM (inactive)

COc1cc(C(=O)Nc2cccc(-c3nncn3C)c2)cc(OC)c1OC
AC50 [8]: 21.6 µM (active) | AC50 [9]: 2.95 µM (active)

O=C(c1ccc(F)cc1)N1CCN(c2ccccn2)CC1
AC50 (Candida albicans [10]): 53.2 µM (active) | AC50 (Candida albicans [11]): 4.43 µM (active)

COC(=O)Nc1nnc(-c2ccccc2Cl)s1
IC50 [12]: 23.6 µM (active) | IC50 (Caspase-3 [13]): 5.86 µM (active) | IC50 [14]: 18.9 µM (active) | IC50 [15]: 5.89 µM (active) | AC50 (HeLa): 61.8 µM (active)

O=C(CCl)NNc1cccc(Cl)n1
IC50 [16]: 2.72 µM (active) | EC50 (Beta-galactosidase): > 40 µM (inactive)

O=C(/C=C/c1ccc(Cl)cc1)Nc1ccc(N2CCCCC2)cc1
EC50 (HEK293 [17]): > 54.7 µM (inactive) | EC50 (Insulin-degrading enzyme [18]): > 54.7 µM (inactive) | EC50 (Insulin-degrading enzyme [19]): > 54.7 µM (inactive) | IC50 (HEK293 [20]): > 89.2 µM (inactive) | AC50 (Cytochrome P450 2C19): inconclusive

C(=C\c1nc(-c2cc3ccccc3cn2)no1)/c1ccccc1
IC50 (Caspase-3 [21]): > 99 µM (inactive) | IC50 [22]: > 99 µM (inactive) | IC50 [23]: > 99 µM (inactive) | IC50 [24]: > 99 µM (inactive)

Cc1ccccc1/C=C/C1=NCCN1 [METRAZOLINE OXALATE]
AC50 [25]: 15.8 µM (inconclusive)
